The text below walks through data of ChEMBL document CHEMBL1135901, “Molecular dynamics and free energy analyses of cathepsin D-inhibitor interactions: insight into structure-based ligand design” (J Med Chem, 2002).

In the experiment the target is Cathepsin D (Homo sapiens, UniProt P07339). Put plainly: Inhibitory activity of compound against human Cathepsin D.

Structures are written as SMILES. pKi: −log10 of the molar value.

Chain of Cathepsin D (P07339 65-162 limits assumed): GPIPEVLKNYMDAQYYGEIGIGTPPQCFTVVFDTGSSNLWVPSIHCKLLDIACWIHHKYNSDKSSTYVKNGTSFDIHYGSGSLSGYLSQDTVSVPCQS
Chain of Cathepsin D (P07339 169-412 limits assumed): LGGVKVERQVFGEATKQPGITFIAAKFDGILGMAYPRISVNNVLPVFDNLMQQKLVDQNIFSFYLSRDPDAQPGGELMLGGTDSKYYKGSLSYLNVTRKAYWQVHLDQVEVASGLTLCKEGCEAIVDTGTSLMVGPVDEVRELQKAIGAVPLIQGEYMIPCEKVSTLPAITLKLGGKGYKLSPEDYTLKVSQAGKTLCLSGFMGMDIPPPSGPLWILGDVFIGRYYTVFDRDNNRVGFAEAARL

For `O=C(/C=C/c1c(Cl)cccc1Cl)N[C@@H](Cc1ccccc1)[C@@H](O)CN(CCc1ccccn1)C(=O)COc1c(Cl)cc(Cl)cc1Cl`, the negative logarithm of the Ki (pKi) is less than 4.00.

`O=C(COc1ccc(Cl)cc1Cl)N[C@@H](Cc1ccccc1)[C@@H](O)CN(CCc1ccc2c(c1)OCO2)C(=O)CCN1C(=O)c2ccccc2C1=O` had a negative logarithm of the Ki (pKi) of 8.52.

`O=C(COc1c(Cl)cc(Cl)cc1Cl)N[C@@H](Cc1ccccc1)[C@@H](O)CN(CCc1ccc2c(c1)OCO2)C(=O)CCN1C(=O)c2ccccc2C1=O` gave a pKi of 7.14.

As to `COc1cc(Br)c(C(=O)N[C@@H](Cc2ccccc2)[C@@H](O)CN(CCc2ccc(Cl)cc2Cl)C(=O)CCN2C(=O)c3ccccc3C2=O)cc1OC`, the pKi was 8.28.

As to `O=C(COc1cc(Cl)c(Cl)cc1Cl)N[C@@H](Cc1ccccc1)[C@H](O)CN(CCc1ccc2c(c1)OCO2)C(=O)CCN1C(=O)c2ccccc2C1=O`, the pKi is less than 5.30.

`O=C(/C=C/c1c(Cl)cccc1Cl)N[C@@H](Cc1ccccc1)[C@@H](O)CN(CCc1cccs1)C(=O)CCc1ccc(Cl)c(Cl)c1` had a pKi of roughly 5.00.
